Source: PMC7033572, “Cytochrome P450-Based Drug-Drug Interactions of Vonoprazan In Vitro and In Vivo” (Frontiers in Pharmacology, 2020)
Entries after “also recorded” stand apart in the source; their conditions may differ.

Legend:
[1] = in vivo
Text: The mobile phase comprising acetonitrile (A) and 0.1% formic acid water (B) was set with a 0.40-ml/min flow rate. […] MassLynx 4.1 software (Waters Corp., Milford, MA, USA) was used for data acquisition, and the UPLC-MS/MS chromatogram of blank plasma that was spiked with probe drugs and metabolites is shown below ( Figure 1 ).
Ten specific pathogen-free (SPF) grade Sprague–Dawley rats (male, 220 ± 20 g) were provided by Wenzhou Medical University Laboratory Animal Research Center. This study was carried out in accordance with the principles of the Basel Declaration and recommendations of Wenzhou Medical University Administration Committee of Experimental Animals. The protocol was approved by the Wenzhou Medical University Administration Committee of Experimental Animals (ID Number: wydw2019-650). Ten rats were randomly divided into two groups: the vonoprazan group (n = 5) and control group (n = 5). Both groups were fasted overnight before experiments but were allowed water all the time. The six probe drug mixtures and vonoprazan were dissolved in 0.5% carboxy methyl cellulose sodium (CMC-Na), respectively. The vonoprazan group was administered 5 mg/kg of vonoprazan for 14 days. The control group was administered 0.5% CMC-Na.
Next, the samples were collected into 1.5-ml centrifuge tubes and were immediately centrifuged for 10 min at 4,000 rpm speed. For every 100 µl of rat plasma was added with 200 µl of acetonitrile in 0.5 μg/ml of IS was added, followed by vortex mixing for one minute. […] In vitro DDI detection system, the pH was 7.4 and the component of buffer was consisted of 100 mM potassium phosphate.
The GraphPad (version 7.0; GraphPad Software Inc., San Diego, CA, USA) was applied to calculate IC50 values and plot plasma concentration-time curves. The pharmacokinetic parameters using noncompartmental analysis was calculated by DAS (version 3.2.8; Wenzhou Medical University, China). Statistical comparisons within groups were conducted by SPSS (version 25.0; SPSS Inc., Chicago, IL, USA), using Student's t-test.

[2] = tested on: CYP2B6; test: Reversible inhibition of bupropion metabolism by vonoprazan in rat liver microsomes (probe cocktail, UPLC-MS/MS); type: in vitro ADME; conditions: pH 7.4, probe bupropion (20 μM)
Procedure: (§1) The pooled rat liver microsomes (RLMs) obtained from eight rats, which were weighed and homogenized with cold […] phosphate-buffered saline (PBS), containing […]. After centrifugation for 15 min at 11,000 rpm, the supernatants were separated and transferred into new tubes for another 15-min centrifugation at 11,000 rpm. Next, ultracentrifugation was performed at […] at 4°C for 1 h., and the microsomal pellets were resuspended with cold […] PBS and stored at −80°C ([Wang et al., 2015]). The protein concentration of RLMs was determined using the Bradford Protein Assay Kit (Thermo Scientific, Waltham, MA, USA).
(§2) Next, vonoprazan was applied as the inhibitor to determine the half maximal inhibitory concentration (IC50). […]. After preincubation in a shaking water bath at 37°C for 5 min, an NADPH-regenerating system was added to initiate the reaction in a final volume of 200 μl. The reaction was performed for 30 min, and was stopped by cooling to −80°C immediately. Next, 20 μl of internal standard (IS) working solution and 200 μl of acetonitrile were added. Centrifugation was performed at 13,000 rpm for 5 min after vortexing for 1 min. The supernatant mixture (2 μl) was injected into the UPLC–MS/MS system for analysis.

[3] = tested on: CYP2D6; test: Reversible inhibition of dextromethorphan metabolism by vonoprazan in rat liver microsomes (probe cocktail, UPLC-MS/MS); type: in vitro ADME; conditions: pH 7.4, probe dextromethorphan (100 μM), rat liver microsomes 0.5 mg/ml, n = 3
Procedure: as §1, §2

[4] = tested on: CYP2C9; test: Reversible inhibition of tolbutamide metabolism by vonoprazan in rat liver microsomes (probe cocktail, UPLC-MS/MS); type: in vitro ADME; conditions: pH 7.4, probe tolbutamide (10 μM), IC50 of vonoprazan on tolbutamide metabolism (CYP2C9), rat liver microsomes 0.5 mg/ml, n = 3
Procedure: as §1, §2

[5] = biological target: T1, CYP1A2 (Rattus norvegicus, UniProt P04799); test: Reversible inhibition of phenacetin metabolism by vonoprazan in rat liver microsomes (probe cocktail, UPLC-MS/MS); type: in vitro ADME; conditions: vonoprazan 1-100 μM, phenacetin 40 μM
T1 construct: contained 0.5 mg/ml of RLMs; from tissue; host or cells: pooled rat liver microsomes
T1 sequence (P04799 1-513): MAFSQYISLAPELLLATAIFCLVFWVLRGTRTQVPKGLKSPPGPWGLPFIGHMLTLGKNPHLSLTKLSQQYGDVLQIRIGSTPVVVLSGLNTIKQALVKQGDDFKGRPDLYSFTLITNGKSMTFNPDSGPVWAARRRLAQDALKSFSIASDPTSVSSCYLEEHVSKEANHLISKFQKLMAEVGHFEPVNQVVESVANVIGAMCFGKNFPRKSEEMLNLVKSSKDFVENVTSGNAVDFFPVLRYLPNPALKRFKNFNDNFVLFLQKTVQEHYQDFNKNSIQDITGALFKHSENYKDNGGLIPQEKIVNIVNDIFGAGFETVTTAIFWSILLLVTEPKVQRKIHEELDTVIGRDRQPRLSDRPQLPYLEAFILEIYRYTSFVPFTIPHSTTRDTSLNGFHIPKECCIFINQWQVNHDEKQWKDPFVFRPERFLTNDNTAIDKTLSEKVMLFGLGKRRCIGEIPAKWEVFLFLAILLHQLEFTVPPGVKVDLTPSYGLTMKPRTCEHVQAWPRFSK
Procedure: as §1, §2

[6] = design: method as in Kogame et al., 2017; conditions: rats; ref Kogame et al., 2017; cited from earlier work
[7] = tested on: CYP3A4; test: Reversible inhibition of midazolam metabolism by vonoprazan in rat liver microsomes (probe cocktail, UPLC-MS/MS); type: in vitro ADME; conditions: pH 7.4, probe midazolam (5 μM), rat liver microsomes 0.5 mg/ml, n = 3
Procedure: as §1, §2

[8] = male, Sprague-Dawley, rat, in vivo
[9] = male, Sprague-Dawley, rat, in vivo, po
[10] = male, Sprague-Dawley, rat, in vivo, po, 10 mg/kg
[11] = rats, Student's t-test, P < 0.05
[12] = rats, vonoprazan group vs control group

CCCCNC(=O)NS(=O)(=O)c1ccc(C)cc1 [Tolbutamide]
Increase of AUC0→t compared with the control group [1, 8]: 0.86 fold | Increase of AUC0→∞ compared with the control group [1, 8]: 0.83 fold | Increase of Cmax by addition of vonoprazan [1, 8]: 0.67 fold | CL/F [1, 9]: 0.167 mL/min/kg | Tmax [1, 9]: 3 ± 1 h | Vd/F [1, 9]: 0.03 ± 0.01 L/kg | half-life [1, 9]: 4.99 ± 1.56 h

CCOc1ccc(NC(C)=O)cc1 [Phenacetin]
AUC(0-inf) [1, 10]: 5040 ng·h/mL | AUC(0-t) [1, 10]: 5040 ng·h/mL | CL/F [1, 10]: 37.5 mL/min/kg | Cmax [1, 10]: 3870 ng/mL | MRT inf [1, 10]: 1.13 ± 0.21 h | MRT last [1, 10]: 1.12 ± 0.2 h | Tmax [1, 10]: 0.3 ± 0.11 h | Vd/F [1, 10]: 1.97 ± 0.81 L/kg | Difference in pharmacokinetic parameters after vonoprazan administration compared with the control group ([1]; rat, in vivo): not significantly different

CC(NC(C)(C)C)C(=O)c1cccc(Cl)c1 (stereo not shown) [Bupropion]
Decrease of CLz/F by vonoprazan [1, 8]: 70.6% | Decrease of Vz/F by vonoprazan [1, 8]: 53.3% | Increase of AUC0→t compared with the control group [1, 8]: 2.17 fold | Increase of AUC0→∞ compared with the control group [1, 8]: 2.30 fold | Increase of Cmax by addition of vonoprazan [1, 8]: 2.33 fold | AUC(0-inf) [1, 10]: 243 ± 107 ng·h/mL | AUC(0-t) [1, 10]: 242 ± 106 ng·h/mL | CL/F [1, 10]: 863 mL/min/kg | Cmax [1, 10]: 97.1 ± 55.5 ng/mL | MRT inf [1, 10]: 2.78 ± 0.57 h | MRT last [1, 10]: 2.72 ± 0.51 h | Tmax [1, 10]: 0.37 ± 0.36 h | Vd/F [1, 10]: 99.1 ± 53.7 L/kg | half-life [1, 10]: 1.38 ± 0.25 h

CNCc1cc(-c2ccccc2F)n(S(=O)(=O)c2cccnc2)c1 [vonoprazan, Vonoprazan]
IC50 at 30 min [2]: 3.68 µM | IC50 at 30 min [3]: 3.62 µM | IC50 at 30 min [4]: 18.3 µM | Inhibition of phenacetin metabolism (CYP1A2) by vonoprazan [5]: no inhibition; also recorded: no effect | Reference maximum plasma concentration level [6]: […] | IC50 at 30 min [7]: […]

COc1ccc2c(c1)[C@]13CCCC[C@@H]1[C@H](C2)N(C)CC3 [Dextromethorphan]
CL/F [1, 9]: 532 mL/min/kg | Tmax [1, 9]: 0.75 ± 0.77 h | Vd/F [1, 9]: 125 ± 88.5 L/kg | half-life [1, 9]: 2.61 ± 1.47 h | Difference in pharmacokinetic parameters after vonoprazan administration compared with the control group [1, 11]: significant differences | Decrease of CLz/F by vonoprazan [1, 12]: 61.0% | Increase of AUC0→t compared with the control group [1, 12]: 1.52 fold | Increase of AUC0→∞ compared with the control group [1, 12]: 1.50 fold | Increase of Cmax by addition of vonoprazan [1, 12]: 1.87 fold

Cc1ncc2n1-c1ccc(Cl)cc1C(c1ccccc1F)=NC2 [Midazolam]
AUC(0-inf) [1, 10]: 657 ± 198 ng·h/mL | AUC(0-t) [1, 10]: 625 ± 194 ng·h/mL | CL/F [1, 10]: 282 mL/min/kg | Cmax [1, 10]: 335 ± 191 ng/mL | MRT inf [1, 10]: 2.34 ± 1.12 h | MRT last [1, 10]: 1.9 ± 0.6 h | Tmax [1, 10]: 0.18 ± 0.09 h | Vd/F [1, 10]: 39.4 ± 20.4 L/kg | half-life [1, 10]: 1.85 ± 1.18 h | Difference in pharmacokinetic parameters after vonoprazan administration compared with the control group [1, 11]: significant differences | Difference in pharmacokinetic parameters after vonoprazan administration compared with the control group ([1]; rats, Student's t-test, P < 0.05, listed as midazolam): significant | Decrease of CLz/F by vonoprazan [1, 12]: 54.7% | Increase of AUC0→t compared with the control group [1, 12]: 1.17 fold | Increase of AUC0→∞ compared with the control group [1, 12]: 1.25 fold | Increase of Tmax by addition of vonoprazan [1, 12]: 1.50 fold

CCCCNC(=O)NS(=O)(=O)c1ccc(C)cc1 [Vonoprazan + tolbutamide]
CLz/F ([1]; rat, in vivo, po): 0.033 ± 0.017 mL/min/kg | Tmax ([1]; rat, in vivo, po): 3.60 ± 1.34 h | Vz/F ([1]; rat, in vivo, po): 0.0140 ± 0.0020 L/kg | t1/2z ([1]; rat, in vivo, po): 4.83 ± 1.27 h
